Key:
[1] = Iron (II) chelation, ferrozine assay; type: biochemical; details: compound 100 μM
Procedure: In an embodiment, the iron (II) chelation capacity of the novel AntiOxBENs was evaluated by the ferrozine assay using EDTA (ethylenediaminetetracetic acid) as reference. The iron chelating properties of protocatechuic and gallic acids, and MitoQ, a mitochondriotropic antioxidant, were also evaluated (FIG. 2).
In an embodiment, AntiOxBENs iron chelating properties were evaluated by the spectrophotometric ferrozine method performed in a multiplate reader (Powerwave XS Microplate Reader) of Bio-Tech instruments.
In an embodiment, the AntiOxBENs iron chelating properties were evaluated as follows: in each well, a solution of the test compound (100 μM) and ammonium iron (II) sulphate in ammonium acetate (20 μM) were added, incubated for 10 min and the absorbance was read at 562 nm. Then, a freshly prepared solution of ferrozine (5 mM) was added to each well (96 μM final concentration). After a new incubation at 37° C. for 10 min period, the absorbance of [Fe(ferrozine)3]^2+ complex was measured at 562 nm. Blank wells were run using DMSO instead of the test compounds. EDTA was used as a reference. All compounds were tested at a final concentration of 100 μM. The absorbance of the first reading was subtracted to the final values to abolish any absorbance due to the test compounds.

[2] = test system: rat liver mitochondria (RLM) membranes; experiment: RLM lipid peroxidation, TBARS assay (FeSO4/H2O2/ascorbate); details: 5 μM; for prevention of TBARS formation / mitochondria lipid peroxidation: FeSO4/H2O2/ascorbate
[3] = ABTS radical cation scavenging activity; type: biochemical; details: ethanol, 15 min
Procedure: (§2) The radical scavenging activity of AntiOxClNs was evaluated by means of total antioxidant capacity assays based on DPPH., ABTS.^+ and GO. radicals. All these methods involved the spectrophotometric measurement of the absorbance decrease resulting from radical (DPPH., ABTS.^+ or GO.) deactivation with an antioxidant. The results were expressed in IC50, which is defined as the minimum antioxidant concentration necessary to reduce the amount of radical by 50%. Antioxidant assays were performed in a multiplate reader (Powerwave XS Microplate Reader) from Bio Tech instruments.
In an embodiment, the ABTS.^+ scavenging activity was evaluated as follows: ethanolic solutions of the test compounds with increasing concentrations (range between 10 μM and 500 μM) were prepared. ABTS. radical cation solution was obtained by addition of 150 mM aqueous potassium persulfate solution (163 μL) to 10 mL of 7 mM aqueous ABTS solution followed by storage in the dark at room temperature for 16 h (2.45 mM final concentration). The solution was then diluted in ethanol to reach the absorbance of 0.72±0.02. After addition of the compound (20 μL), in triplicate, to ABTS.^+ solution (180 μL) the spectrophotometric measurement was carried out each minute over 15 minutes. […] Dose-response curves were established for the determination of IC50 values.

[4] = GO radical scavenging activity; type: biochemical; details: ethanol, 428 nm, 30 min
Procedure: The selected total antioxidant capacity (TAC) assays (DPPH, ABTS and GO) involved the spectrophotometric measurement of the radical absorbance decrease as a result of an in situ radical deactivation by an antioxidant.
as §2
In an embodiment, the GO. scavenging activity was evaluated as follows: solutions of test compounds with concentrations from 10 μM to 100 μM were prepared in ethanol. An ethanolic solution of 5 mM GO. was prepared and diluted to reach the absorbance of 1.00±0.02 at 428 nm. The addition (20 μL) in triplicate of compound solution to GO. solution (180 μL) was followed by absorbance measurement at 428 nm over 30 minutes, in the dark, at room temperature. […] Dose-response curves were established for the determination of IC50 values.

[5] = DPPH radical scavenging activity (total antioxidant capacity); type: biochemical; details: ethanol, 515 nm, 45 min
Procedure: as §2
A DPPH ethanolic solution (6.85 mM) was also prepared and then diluted to reach the absorbance of 0.72±0.02 at 515 nm. Each compound solution (20 μL) was added to 180 μL of DPPH. solution in triplicate, and the absorbance at 515 nm was recorded minutely over 45 minutes. […] Dose-response curves were established for the determination of IC50 values.

[6] = Redox potential by differential pulse and cyclic voltammetry, glassy carbon electrode; type: physicochemical; details: physiological pH 7.4
Procedure: In an embodiment, the oxidative behaviour of the parent antioxidants (protocatechuic and gallic acids) and AntiOxBENs was evaluated at physiological pH 7.4, by differential pulse and cyclic voltammetry, using a glassy carbon working electrode. […] For pyrogallol derivatives (gallic acid, AntiOxBEN2, AntiOxBEN3), a significant decrease in redox potentials was observed (Ep=0.163-0.168 V) (Table 1).
In an embodiment, the electrochemical analytical data was obtained using a computer controlled potentiostat Autolab PGSTAT302N (Metrohm Autolab, Utrecht, Netherlands). Generally, cyclic voltammetry (CV) data was acquired at a scan rate of 50 mVs^−1. Differential pulse voltammetry (DPV) results were acquired at a step potential of 4 mV, pulse amplitude of 50 mV and scan rate of 8 mVs^−1. The electrochemical signals were monitored by the General Purpose Electrochemical System (GPES) version 4.9, software package. All electrochemical experiments were performed at room temperature in an electrochemical cell that was placed in a Faraday cage in order to minimize the contribution of background noise to the analytical signal.
In an embodiment, the process of evaluation of AntiOxBENs redox properties was conducted as follows: stock solutions of each compound (10 mM) were prepared by dissolving the appropriate amount in ethanol. The voltammetric working solutions were prepared in the electrochemical cell, at a final concentration of 0.1 mM. The […] supporting electrolyte was prepared by diluting 6.2 mL of 0.2 M dipotassium hydrogen phosphate and 43.8 mL of 0.2 M potassium dihydrogen phosphate to 100 mL. Voltammetric data was acquired in a three-electrode system consisting of a glassy carbon electrode (GCE, d=2 mm) as working electrode, a counter electrode of platinum wire and a saturated Ag/AgCl reference electrode. In an embodiment, the evaluation of AntiOxBENs lipophilic properties was performed as follows: the electrochemical cell was a four-electrode system with arrays of micro liquid-liquid interfaces (μITIES) containing two Ag/AgCl reference electrodes and two counter electrodes of Pt, one in each phase. The microporous membrane was sealed with a fluorosilicone sealant (Dow Corning 730) onto a glass cylinder which was filled with 4.0 mL of the aqueous phase, where the aliquots of AntiOxBENs solutions were added. The membrane was then immersed into the organic phase contained in the cell. The organic phase reference solution (a 2 mM BTPPACI+2 mM NaCl aqueous solution) was mechanically stabilized The aqueous supporting electrolyte solution was a Tris-HCl buffer 10 mM pH 7.0.

[7] = test system: rat liver mitochondria (RLM); experiment: Mitochondrial respiration of isolated RLM (Clark-type oxygen electrode): RCR, ADP/O; type: biochemical
Procedure: (§1) In an embodiment, and as an example, the toxicity effects of some AntiOxBENs and MitoQ on the mitochondrial bioenergetics, namely on RLM Δψ and respiration parameters, were measured. The Δψ represents the main component of the electrochemical gradient generated by mitochondrial respiration and accounts for more than 90% of the total available energy. For mitochondrial respiration assays, glutamate/malate (for complex I) and succinate (for complex II) were used as substrates. In addition, the mitochondrial oxidative phosphorylation coupling index, known as respiratory control ratio (RCR, state 3/state 4 respiration) and ADP/O index (the coupling between ATP synthesis and oxygen consumption) were also calculated. AntiOxBENs and MitoQ were tested at antioxidant-relevant concentrations, with 10 μM being the highest concentration.
In an embodiment, the evaluation of AntiOxBENs effect on mitochondrial respiration was performed as follows: the respiration of isolated RLM was evaluated polarographically with a Clark-type oxygen electrode, connected to a suitable recorder in a 1 mL thermostated water-jacketed chamber with magnetic stirring, at 37° C. […] Increasing concentrations of AntiOxBENs (2.5-10 μM) were added to the reaction medium containing respiratory substrates glutamate/malate (10 mM and 5 mM respectively) or succinate (5 mM) and RLM (1 mg) and allowed to incubate for a 5 min period prior to the assay. State 2 was considered as the respiration during the 5 min incubation time with AntiOxBENs. […] State 4 was determined after ADP phosphorylation finished. Subsequent addition of oligomycin (2 μg/ml) inhibited ATPsynthase and originated the oligomycin-inhibition respiration state. Finally, 1 μM FCCP was added to induce uncoupled respiration. […] Data are means are means±SEM of seven independent experiments.

[8] = test system: rat liver mitochondria (RLM); experiment: Mitochondrial transmembrane electric potential (safranine fluorescence); type: biochemical
Procedure: as §1
In an embodiment, the evaluation of AntiOxBENs effect on mitochondrial transmembrane electric potential (Δψ) was performed as follows: the mitochondrial transmembrane electric potential (Δψ) was estimated through the evaluation of fluorescence changes of safranine (5 μM) and was recorded on a spectrofluorometer operating at excitation and emission wavelengths of 495 and 586 nm, with a slit width of 5 nm. Increasing concentrations of AntiOxBENs (2.5-10 μM) were added to the reaction medium (200 mM sucrose, 1 mM KH2PO^4, 10 mM Tris (pH 7.4) and 10 μM EGTA) containing respiratory substrates glutamate/malate (5 mM and 2.5 mM respectively) or succinate (5 mM) and RLM (0.5 mg in 2 mL final volume) and allowed to incubate for a 5 min period prior to initiate the assay, at 25° C. In this assay, safranine (5 μM) and ADP (25 nmol) were used to initiate the assay and to induce depolarization, respectively. Then, 1 μM FCCP was added at the end of all experiments to depolarize mitochondria. Δψ was calculated using a calibration curve obtained when RLM were incubated in a K^+-free reaction medium containing 200 mM sucrose, 1 mM NaH2PO4, 10 mM Tris (pH 7.4) and 10 μM EGTA, supplemented with 0.4 μg valinomicin. […] “Repolarization” corresponded to the recovery of membrane potential after the complete phosphorylation of ADP added. Lag phase reflected the time required to phosphorylate the added ADP. Isolated RLM developed a Δψ≈226 mV and Δψ≈202 mV (negative inside) when glutamate/malate or succinate were used, respectively. Data are means±SEM of five independent experiments.

Which “ability to chelate ferrous iron” value [1] does the source give for `O=C(O)CN(CCN(CC(=O)O)CC(=O)O)CC(=O)O` [EDTA, ethylenediaminetetracetic acid] here?
The value was “chelate all the iron available in solution”.

With `O=C(O)c1cc(O)c(O)c(O)c1` [Gallic acid] as the compound, how does the “prevention of TBARS formation / mitochondria lipid peroxidation” value [2] read?
The value was “most effective”.

And the IC50 [3]?
The IC50 was 7.8 µM.

And the “ability to chelate ferrous iron” value [1]?
The value was “able to chelate iron efficiently”.

And the IC50 [4]?
The IC50 was 2.5 µM.

What about the IC50 [5] of the same compound?
Its IC50 is 9.9 µM.

What about the “Ep (redox potential)” value [6] of the same compound?
Its value is 0.163 V.

With `COC1=C(OC)C(=O)C(CCCCCCCCCC[P+](c2ccccc2)(c2ccccc2)c2ccccc2)=C(C)C1=O.CS(=O)(=O)[O-]` [MitoQ, [10-(4,5-dimethoxy-2-methyl-3,6-dioxo-1,4-cyclohexadien-1-yl)decyl]triphenylphosphonium methanesulfonate, reference compound] as the compound, how does the “inhibition of lipid peroxidation in RLM” value ([2]; FIGS. 4 and 5 (TBARS and oxygen consumption)) read?
Its value is “effectively inhibited lipid peroxidation”.

And the “concentration causing toxicity on the mitochondrial bioenergetic apparatus of RLM” value ([7]; RLM)?
Its value is 2500 nM.

And the ADP/O ([7]; RLM, Glutamate/Malate, 2.5 μM)?
The ADP/O was 2.2 ± 0.1.

What about the RCR ([7]; RLM, Glutamate/Malate, 2.5 μM) of the same compound?
The RCR was 4.2 ± 0.6.

And the ADP/O ([7]; RLM, Glutamate/Malate, 5 μM)?
The ADP/O was 1.9 ± 0.1.

What about the RCR ([7]; RLM, Glutamate/Malate, 5 μM) of the same compound?
The RCR was 2.7 ± 0.3.

What about the ADP/O ([7]; RLM, Glutamate/Malate, 10 μM) of the same compound?
Its ADP/O is 2.0 ± 0.2.

What about the RCR ([7]; RLM, Glutamate/Malate, 10 μM) of the same compound?
Its RCR is 1.3 ± 0.1.

What about the ADP/O ([7]; RLM, Succinate, 2.5 μM) of the same compound?
The ADP/O was 1.3 ± 0.1.

And the RCR ([7]; RLM, Succinate, 2.5 μM)?
The RCR was 2.6 ± 0.2.

What about the ADP/O ([7]; RLM, Succinate, 5 μM) of the same compound?
The ADP/O was 1.3 ± 0.1.

And the RCR ([7]; RLM, Succinate, 5 μM)?
The RCR was 2.4 ± 0.2.

And the “effect on RCR and ADP/O parameters” value ([7]; RLM, all tested concentrations (2.5-10 μM))?
The value was “significant decrease of RCR and ADP/O parameters”.

What about the “uncoupling of RLM” value ([7]; succinate, highest concentration tested (10 μM)) of the same compound?
The value was “completely uncoupled”.

What about the “Δψ after ADP addition” value ([8]; 10 μM) of the same compound?
Its value is “Δψ collapse after ADP addition”.

What about the “ADP-induced depolarization (ΔΨ in - mV)” value ([8]; Glutamate/Malate, 2.5 μM) of the same compound?
Its value is 173.0 ± 9.4 - mV.

What about the “Lag Phase” value ([8]; Glutamate/Malate, 2.5 μM) of the same compound?
The value was 86.5 ± 5.6 s.

What about the “Maximum potential (ΔΨ in - mV)” value ([8]; Glutamate/Malate, 2.5 μM) of the same compound?
Its value is 195.7 ± 10.8 - mV.

What about the “Repolarization Potential (ΔΨ in - mV)” value ([8]; Glutamate/Malate, 2.5 μM) of the same compound?
Its value is 191.1 ± 11.7 - mV.

And the “ADP-induced depolarization (ΔΨ in - mV)” value ([8]; Glutamate/Malate, 5 μM)?
Its value is 173.5 ± 8.9 - mV.

And the “Lag Phase” value ([8]; Glutamate/Malate, 5 μM)?
The value was 84.5 ± 7.1 s.

And the “Maximum potential (ΔΨ in - mV)” value ([8]; Glutamate/Malate, 5 μM)?
The value was 188.3 ± 10.6 - mV.

What about the “Repolarization Potential (ΔΨ in - mV)” value ([8]; Glutamate/Malate, 5 μM) of the same compound?
Its value is 185.0 ± 9.4 - mV.

And the “Maximum potential (ΔΨ in - mV)” value ([8]; Glutamate/Malate, 10 μM)?
The value was 113.8 ± 10.2 - mV.

What about the “ADP-induced depolarization (ΔΨ in - mV)” value ([8]; Succinate, 2.5 μM) of the same compound?
Its value is 162.1 ± 6.0 - mV.

And the “Lag Phase” value ([8]; Succinate, 2.5 μM)?
Its value is 104.8 ± 9.9 s.

And the “Maximum potential (ΔΨ in - mV)” value ([8]; Succinate, 2.5 μM)?
The value was 181.6 ± 8.3 - mV.

And the “Repolarization Potential (ΔΨ in - mV)” value ([8]; Succinate, 2.5 μM)?
Its value is 182.7 ± 9.2 - mV.

And the “ADP-induced depolarization (ΔΨ in - mV)” value ([8]; Succinate, 5 μM)?
Its value is 157.1 ± 6.4 - mV.

And the “Lag Phase” value ([8]; Succinate, 5 μM)?
Its value is 92.6 ± 19.4 s.

What about the “Maximum potential (ΔΨ in - mV)” value ([8]; Succinate, 5 μM) of the same compound?
The value was 170.2 ± 8.1 - mV.

What about the “Repolarization Potential (ΔΨ in - mV)” value ([8]; Succinate, 5 μM) of the same compound?
The value was 170.7 ± 8.7 - mV.

And the “Maximum potential (ΔΨ in - mV)” value ([8]; Succinate, 10 μM)?
Its value is 108.9 ± 3.8 - mV.

What does the source list for `O=C(O)c1ccc(O)c(O)c1` [Protocatechuic acid]?
prevention of TBARS formation / mitochondria lipid peroxidation [2]: not effective; IC50 [3]: 30.1 µM; ability to chelate ferrous iron [1]: able to chelate iron efficiently; IC50 [4]: 5.8 µM; IC50 [5]: 27.6 µM; Ep (redox potential) [6]: 0.257 V

What does the source list for `Cc1c(C)c2c(c(C)c1O)CCC(C)(C(=O)O)O2` (centres unmarked) [Trolox]?
IC50 [3]: 31.1 µM; IC50 [4]: 4.5 µM; IC50 [5]: 26.8 µM; Ep (redox potential) [6]: 0.099 V

For Vitamin E, which IC50 [3] is on record?
Its IC50 is 30.9 µM.

And the IC50 [4]?
The IC50 was 5.8 µM.

What about the IC50 [5] of the same compound?
Its IC50 is 26.3 µM.
